Test system: MX-1 tumors (human breast adenocarcinoma-derived tumor cell line)
Details: in vivo

O=P1(N(CCCl)CCCl)NCCCO1 (stereo not shown) [cytoxan]
% TGI (tumor growth inhibition vs PBS): 90.5%
deaths: 0/5
ΔBW (change in body weight): 1.11
ΔTW (change in tumor weight): 2.4

Reference: US4894225A (priority 1987, dated 1990)
